Data taken from PubChem BioAssay AID2060612 (Molecular Pharmacology Branch, DTP, NCI, 2025).

Test system: 565232-114-T-J1-PDC complex spheroid viability
Assay: Anticancer human tumor 565232-114-T-J1-PDC patient-derived bladder carcinoma cell line growth inhibition [CLK]
Conditions: for viability, T/C: stronger effect = lower value
How it was run: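 Multi-cell-type spheroids combined patient-derived tumor cells with HUVEC endothelial cells and human mesenchymal stem cells. Paired agents were dosed in half-log steps down from about clinical Cmax, or from 10 microM where Cmax was unknown.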

[1] = curve of first compound, second compound 0.0316 µM
[2] = curve of first compound, second compound 0.1 µM
[3] = curve of first compound, second compound 0.316 µM
[4] = curve of first compound, second compound 1 µM
[5] = curve of first compound, second compound 3.16 µM
[6] = curve of first compound, second compound 10 µM
[7] = second compound 0.0316 µM, first compound 0.0316 µM
[8] = second compound 0.0316 µM, first compound 0.1 µM
[9] = second compound 0.0316 µM, first compound 0.316 µM
[10] = second compound 0.0316 µM, first compound 1 µM
[11] = second compound 0.0316 µM, first compound 3.16 µM
[12] = second compound 0.0316 µM, first compound 10 µM
[13] = second compound 0.1 µM, first compound 0.0316 µM
[14] = second compound 0.1 µM, first compound 0.1 µM
[15] = second compound 0.1 µM, first compound 0.316 µM
[16] = second compound 0.1 µM, first compound 1 µM
[17] = second compound 0.1 µM, first compound 3.16 µM
[18] = second compound 0.1 µM, first compound 10 µM
[19] = second compound 0.316 µM, first compound 0.0316 µM
[20] = second compound 0.316 µM, first compound 0.1 µM
[21] = second compound 0.316 µM, first compound 0.316 µM
[22] = second compound 0.316 µM, first compound 1 µM
[23] = second compound 0.316 µM, first compound 3.16 µM
[24] = second compound 0.316 µM, first compound 10 µM
[25] = second compound 1 µM, first compound 0.0316 µM
[26] = second compound 1 µM, first compound 0.1 µM
[27] = second compound 1 µM, first compound 0.316 µM
[28] = second compound 1 µM, first compound 1 µM
[29] = second compound 1 µM, first compound 3.16 µM
[30] = second compound 1 µM, first compound 10 µM
[31] = second compound 3.16 µM, first compound 0.0316 µM
[32] = second compound 3.16 µM, first compound 0.1 µM
[33] = second compound 3.16 µM, first compound 0.316 µM
[34] = second compound 3.16 µM, first compound 1 µM
[35] = second compound 3.16 µM, first compound 3.16 µM
[36] = second compound 3.16 µM, first compound 10 µM
[37] = second compound 10 µM, first compound 0.0316 µM
[38] = second compound 10 µM, first compound 0.1 µM
[39] = second compound 10 µM, first compound 0.316 µM
[40] = second compound 10 µM, first compound 1 µM
[41] = second compound 10 µM, first compound 3.16 µM
[42] = second compound 10 µM, first compound 10 µM
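Further: spheroids exposed to compounds for 7 days before readout.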
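Wherever viability, T/C is given: 100% = DMSO vehicle wells with luminescence normalized to vehicle control.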

CC1COCCN1c1cc(C2(S(C)(=N)=O)CC2)nc(-c2ccnc3[nH]ccc23)n1 (stereo not drawn) + CNC(=O)c1ccc(Nc2nc(OC3CCCC3)c3c(-c4ccc5nc(C)oc5c4)c[nH]c3n2)c(OC)c1 was tested, and the IC50 [1] was 6350 nM, the IC50 [2] was 222 nM and the IC50 [3] was under 31.6 nM. For the same compound, the IC50 [4] was under 31.6 nM, the IC50 [5] was under 31.6 nM and the IC50 [6] was under 31.6 nM. The viability, T/C [7] was 95.2%, the viability, T/C [8] was 85.1% and the viability, T/C [9] was 93.2%. The viability, T/C [10] was 79.4%, the viability, T/C [11] was 103% and the viability, T/C [12] was 23.2%. It also gave a viability, T/C [13] of 55.6%, a viability, T/C [14] of 57% and a viability, T/C [15] of 42%. For the same compound, the viability, T/C [16] was 44.2%, the viability, T/C [17] was 30.2% and the viability, T/C [18] was 11.5%. For the same compound, the viability, T/C [19] was 31.4%, the viability, T/C [20] was 38.3% and the viability, T/C [21] was 35.7%. For the same compound, the viability, T/C [22] was 28.6%, the viability, T/C [23] was 22% and the viability, T/C [24] was 9.67%. For the same compound, the viability, T/C [25] was 24.7%, the viability, T/C [26] was 25.2% and the viability, T/C [27] was 25.9%. It also gave a viability, T/C [28] of 23.8%, a viability, T/C [29] of 11.1% and a viability, T/C [30] of 4.92%. For the same compound, the viability, T/C [31] was 19.1%, the viability, T/C [32] was 17.4% and the viability, T/C [33] was 17.4%. The viability, T/C [34] was 13.3%, the viability, T/C [35] was 11.2% and the viability, T/C [36] was 2.86%. It also gave a viability, T/C [37] of 19%, a viability, T/C [38] of 21.1% and a viability, T/C [39] of 20.5%. It also gave a viability, T/C [40] of 15.5%, a viability, T/C [41] of 6.6% and a viability, T/C [42] of 1.53%.
For COc1c(OCCCN2CCOCC2)ccc2c3n(c(=NC(=O)c4cnc(N)nc4)nc12)CCN3, the viability, T/C (compound 0.00316 µM) was 97.1%, the viability, T/C (compound 0.01 µM) was 78.6% and the viability, T/C (compound 0.0316 µM) was 101%. The viability, T/C (compound 0.1 µM) was 103%, the viability, T/C (compound 0.316 µM) was 120% and the viability, T/C (compound 1 µM) was 66.1%. For the same compound, the IC50 (curve of compound) was over 1000 nM.
CC(=O)O[C@H]1C(=O)[C@@]2(C)[C@H]([C@H](OC(=O)c3ccccc3)[C@]3(O)C[C@H](OC(=O)[C@H](O)[C@@H](NC(=O)c4ccccc4)c4ccccc4)C(C)=C1C3(C)C)[C@]1(OC(C)=O)CO[C@@H]1C[C@@H]2O + CN1CCN(c2cc(C(=O)Nc3cc4cc(-c5cnn(C)c5)ccc4cn3)ccn2)CC1 gave an IC50 [1] of under 31.6 nM, an IC50 [2] of under 31.6 nM and an IC50 [3] of under 31.6 nM. For the same compound, the IC50 [4] was under 31.6 nM, the IC50 [5] was under 31.6 nM and the IC50 [6] was under 31.6 nM. It also gave a viability, T/C [7] of 33.2%, a viability, T/C [8] of 17.3% and a viability, T/C [9] of 18.3%. The viability, T/C [10] was 16.5%, the viability, T/C [11] was 21.1% and the viability, T/C [12] was 20.4%. For the same compound, the viability, T/C [13] was 25.3%, the viability, T/C [14] was 23.1% and the viability, T/C [15] was 20.2%. The viability, T/C [16] was 16.3%, the viability, T/C [17] was 17% and the viability, T/C [18] was 22.6%. It also gave a viability, T/C [19] of 7.34%, a viability, T/C [20] of 11.6% and a viability, T/C [21] of 13.5%. For the same compound, the viability, T/C [22] was 12.6%, the viability, T/C [23] was 13.7% and the viability, T/C [24] was 14.9%. For the same compound, the viability, T/C [25] was 1.4%, the viability, T/C [26] was 0.18% and the viability, T/C [27] was 0.18%. It also gave a viability, T/C [28] of 0.13%, a viability, T/C [29] of 0.16% and a viability, T/C [30] of 0.95%. The viability, T/C [31] was 0.15%, the viability, T/C [32] was 0.19% and the viability, T/C [33] was 0.17%. The viability, T/C [34] was 1.81%, the viability, T/C [35] was 0.95% and the viability, T/C [36] was 3.05%. The viability, T/C [37] was 0.18%, the viability, T/C [38] was 0.55% and the viability, T/C [39] was 2.34%. For the same compound, the viability, T/C [40] was 0.22%, the viability, T/C [41] was 1.4% and the viability, T/C [42] was 0.16%.
CC(Nc1ccc2c(c1)OCCn1cc(N3C(=O)OCC3C(F)F)nc1-2)C(N)=O (stereo not drawn) showed a viability, T/C (compound 0.0316 µM) of 99.5%, a viability, T/C (compound 0.1 µM) of 83.6% and a viability, T/C (compound 0.316 µM) of 92.9%. It also gave a viability, T/C (compound 1 µM) of 98.5%, a viability, T/C (compound 3.16 µM) of 92.8% and a viability, T/C (compound 10 µM) of 102%. It also gave an IC50 (curve of compound) of over 10000 nM.
